Results: patent US20250099478A1, “PLASMA KALLIKREIN INHIBITORS” (Merck Sharp & Dohme LLC, priority 2022, published 2025)

How the values were obtained:
[1] = target: T1, human factor XIa (Homo sapiens, UniProt P03951); assay: Factor XIa Assay; format: biochemical; conditions: human factor XIa 0.04 nM, substrate GPR-AFC, 25° C.
T1 construct: with human (0.04 nM) factor XIa
Experimental: The effectiveness of a compound of the present invention as an inhibitor of Coagulation factor XIa can be determined using a relevant purified serine protease, and an appropriate synthetic substrate. The rate of hydrolysis of the chromogenic or fluorogenic substrate by the relevant serine protease was measured both in the absence and presence of compounds of the present invention. Assays were conducted at rt or at 37° C. […] A decrease in the rate of fluorescence change in the presence of inhibitor is indicative of enzyme inhibition. Such methods are known to one skilled in the art. The results of this assay are expressed as the half-maximal inhibitory concentrations (IC50), or the inhibitory constant, Ki.
Compounds were pre-incubated for 30 min at 25° C. with human (0.04 nM) factor XIa in 50 mM HEPES buffer with 150 mM sodium chloride, 5 mM calcium chloride, 0.1% PEG 8000, pH 7.4. factor XIa enzymatic activity was determined by addition of the substrate glycine-proline-arginine-7-amido-4-trifluoromethylcoumarin (GPR-AFC) and measurement of the fluorescence at 400/505 nm after a 60 min incubation at 25° C. The % inhibition for each data point was calculated from the data and analyzed using the log (inhibitor) vs. response four parameters equation to determine the half-maximal inhibitory concentrations (IC50). The IC50 were converted to equilibrium inhibitory constants (Ki) using the Cheng-Prusoff equation.

[2] = target: T2, Human plasma kallikrein (Homo sapiens, UniProt P03952); assay: Plasma Kallikrein Assay; format: biochemical; conditions: purified Human plasma kallikrein 0.5 nM, substrate Acetyl-K-P-R-AFC; read-out: PKal IC50
T2 construct: yields a heavy chain (371 amino acids) and a light chain (248 amino acids); purchased Enzyme Research Laboratories
Procedure, shortened: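 Purified human plasma kallikrein (0.5 nM) hydrolysing fluorogenic Acetyl-K-P-R-AFC ([…]) in 50 mM HEPES pH 7.4, 150 mM NaCl, 5 mM CaCl2, 0.1% PEG 8000, at rt or 37 °C after enzyme–inhibitor equilibration. IC50 from four-parameter logistic fit; Ki via Cheng–Prusoff.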

T1 sequence (P03951 388-625 limits assumed): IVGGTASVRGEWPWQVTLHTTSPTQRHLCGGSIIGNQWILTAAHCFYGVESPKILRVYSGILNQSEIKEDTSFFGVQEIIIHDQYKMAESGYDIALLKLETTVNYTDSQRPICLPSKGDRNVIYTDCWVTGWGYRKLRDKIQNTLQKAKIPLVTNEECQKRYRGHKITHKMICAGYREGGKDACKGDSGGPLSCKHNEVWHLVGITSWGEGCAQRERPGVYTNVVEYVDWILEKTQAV
T1 sequence (P03951 19-387 partner limits assumed): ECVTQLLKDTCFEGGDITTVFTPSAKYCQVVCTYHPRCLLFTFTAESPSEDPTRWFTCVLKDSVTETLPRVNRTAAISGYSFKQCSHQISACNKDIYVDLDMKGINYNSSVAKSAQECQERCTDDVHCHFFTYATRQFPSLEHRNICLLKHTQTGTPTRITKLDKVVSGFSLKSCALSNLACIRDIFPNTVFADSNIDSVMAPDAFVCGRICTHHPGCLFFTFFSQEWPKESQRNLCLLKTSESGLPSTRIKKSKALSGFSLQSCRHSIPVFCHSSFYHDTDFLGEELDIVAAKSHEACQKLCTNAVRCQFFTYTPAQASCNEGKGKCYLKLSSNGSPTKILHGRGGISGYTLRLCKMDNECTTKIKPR
T2 sequence (P03952 391-638 limits assumed): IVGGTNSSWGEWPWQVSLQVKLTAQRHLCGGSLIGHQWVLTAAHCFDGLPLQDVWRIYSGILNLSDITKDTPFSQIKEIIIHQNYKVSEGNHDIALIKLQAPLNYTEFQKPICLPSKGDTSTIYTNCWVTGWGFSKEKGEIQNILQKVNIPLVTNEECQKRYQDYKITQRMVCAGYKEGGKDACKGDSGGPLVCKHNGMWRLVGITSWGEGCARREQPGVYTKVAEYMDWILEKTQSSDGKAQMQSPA
T2 sequence (P03952 20-390 partner limits assumed): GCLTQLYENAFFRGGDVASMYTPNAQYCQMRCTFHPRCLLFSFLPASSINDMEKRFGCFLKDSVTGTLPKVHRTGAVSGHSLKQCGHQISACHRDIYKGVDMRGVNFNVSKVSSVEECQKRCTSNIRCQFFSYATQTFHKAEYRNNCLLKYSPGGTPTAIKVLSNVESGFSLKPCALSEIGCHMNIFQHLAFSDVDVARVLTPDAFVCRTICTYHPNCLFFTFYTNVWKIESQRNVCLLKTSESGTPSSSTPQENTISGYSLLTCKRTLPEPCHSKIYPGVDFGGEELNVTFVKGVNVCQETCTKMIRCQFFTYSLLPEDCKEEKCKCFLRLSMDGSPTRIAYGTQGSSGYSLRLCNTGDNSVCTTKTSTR

| Structure (SMILES) | IC50 [1] [nM] | IC50 [2] [nM] |
| --- | --- | --- |
| O=C1Nc2ccc(Cl)c(F)c2[C@@]2(CCCN(C(=O)c3cnc(C(c4ccc(F)cc4)C(F)(F)F)[nH]3)C2)O1 (single isomer, unassigned) [Example 83] | 2700 | 21.3 |
| CC[C@H](c1ccc(F)cc1)c1nnc(C(=O)N2CCC[C@@]3(C2)OC(=O)Nc2ccc(Cl)c(F)c23)[nH]1 (single isomer, unassigned) [Example 85] | 3110 | 16.7 |
| CCC(c1ccc(F)c(Cl)c1)c1nnc(C(=O)N2CCC[C@@]3(C2)OC(=O)Nc2ccc(Cl)c(F)c23)[nH]1 (single isomer, unassigned) [Example 96] | 5080 | 3.5 |
| CCC(c1ccc(F)c(Cl)c1)c1nnc(C(=O)N2CCC[C@@]3(C2)OC(=O)Nc2ccc(Cl)c(F)c23)[nH]1 (single isomer, unassigned) [Example 97] | 8750 | 13.8 |
| O=C1Nc2ccc(Cl)c(F)c2[C@@]2(CCCN(C(=O)c3nnc(C(CC(F)(F)F)c4cccc(Cl)c4)[nH]3)C2)O1 (single isomer, unassigned) [Example 101] | 4010 | 10.4 |
| CCC(c1ccc(F)cc1)c1nnc(C(=O)N2CC(C)(C)C[C@@]3(C2)OC(=O)Nc2ccc(Cl)c(F)c23)[nH]1 (single isomer, unassigned) [Example 103] | 1950 | 7 |
| O=C1Nc2ccc(Cl)c(F)c2[C@@]2(CCCN(C(=O)c3nnc(C(Cc4ccccc4)c4ccccc4)[nH]3)C2)O1 (single isomer, unassigned) [Example 104] | 2990 | 16.6 |
| O=C1Nc2ccc(Cl)c(F)c2[C@@]2(CCCN(C(=O)c3nnc(C(Cc4ccccc4)c4ccccc4)[nH]3)C2)O1 (single isomer, unassigned) [Example 105] | 3600 | 17.3 |
| O=C1Nc2ccc(Cl)c(F)c2[C@@]2(CCCN(C(=O)c3nnc(C(c4ccccc4)C4CC4)[nH]3)C2)O1 (single isomer, unassigned) [Example 107] | 1910 | 11.2 |
| CCC(c1ccc2c(c1)COC2)c1nnc(C(=O)N2CCC[C@@]3(C2)OC(=O)Nc2ccc(Cl)c(F)c23)[nH]1 (single isomer, unassigned) [Example 111] | 2820 | 3.8 |
| CCC(c1ccc2c(c1)COC2)c1nnc(C(=O)N2CCC[C@@]3(C2)OC(=O)Nc2ccc(Cl)c(F)c23)[nH]1 (single isomer, unassigned) [Example 112] | 1560 | 1 |
| CCC(F)(c1ccc(F)cc1)c1n[nH]c(C(=O)N2CCC[C@@]3(C2)OC(=O)Nc2ccc(Cl)c(F)c23)n1 (single isomer, unassigned) [Example 129, (3′R)-6-Chloro-5-fluoro-1′-(3-(1-fluoro-1-(4-fluorophenyl)propyl)-1H-1,2,4-triazole-5-carbonyl)spiro[benzo[d][1.3]oxazine-4,3′-piperidin]-2(1H)-one] | 4300 | 8.9 |
| C[C@H](O)[C@@H](c1ccccc1)n1cc(C(=O)N2CCC[C@@]3(C2)OC(=O)Nc2ccc(Cl)c(F)c23)cn1 [Example 9, (R)-6-Chloro-5-fluoro-1′-(1-((1R,2S)-2-hydroxy-1-phenylpropyl)-1H-pyrazole-4-carbonyl)spiro[benzo[d][1,3]oxazine-4,3′-piperidin]-2(1H)-one] | 5590 | 29.7 |
| CO[C@@H](C)[C@@H](c1ccccc1)n1cc(C(=O)N2CCC[C@@]3(C2)OC(=O)Nc2ccc(Cl)c(F)c23)cn1 [Example 11, (R)-6-Chloro-5-fluoro-1′-(1-((1R,2S)-2-methoxy-1-phenylpropyl)-1H-pyrazole-4-carbonyl)spiro[benzo[d][1,3]oxazine-4,3′-piepridine]-2(1H)-one] | 4330 | 20 |
| COCC(c1ccccc1)n1cc(C(=O)N2CCC[C@@]3(C2)OC(=O)Nc2ccc(Cl)c(F)c23)cn1 (stereo partly drawn) [Example 14, (4R)-6-Chloro-5-fluoro-1′-(1-(2-methoxy-1-phenylethyl)-1H-pyrazole-4-carbonyl)spiro[benzo[d][1,3]oxazine-4,3′-piperidin]-2(1H)-one] | 1530 | 16.2 |
| CO[C@H](C)[C@H](c1ccccc1)n1cc(C(=O)N2CCC[C@@]3(C2)OC(=O)Nc2ccc(Cl)c(F)c23)cn1 [Example 15, (R)-6-Chloro-5-fluoro-1′-(1-((1S,2R)-2-methoxy-1-phenylpropyl)-1H-pyrazole-4-carbonyl)spiro[benzo[d][1,3]oxazine-4,3′-piperidin]-2(1H)-one] | 2710 | 38.1 |

Molecules with a lower IC50 [1], results first:

| IC50 [1] [nM] | IC50 [2] [nM] | Structure (SMILES) |
| --- | --- | --- |
| 1450 | 2.2 | O=C1Nc2ccc(Cl)c(F)c2[C@@]2(CCCN(C(=O)c3nnc(C(CC(F)(F)F)c4cccc(Cl)c4)[nH]3)C2)O1 (single isomer, unassigned) [Example 100] |
| 1450 | 40.3 | C[C@@H](O)[C@H](c1ccccc1)n1cc(C(=O)N2CCC[C@@]3(C2)OC(=O)Nc2ccc(Cl)c(F)c23)cn1 [Example 16, (R)-6-Chloro-5-fluoro-1′-(1-((1S,2R)-2-hydroxy-1-phenylpropyl)-1H-pyrazole-4-carbonyl)spiro[benzo[d][1,3]oxazine-4,3′-piperidin]-2(1H)-one] |
| 1370 | 7.9 | O=C1Nc2ccc(Cl)c(F)c2[C@@]2(CC(C3CC3)CN(C(=O)c3cnn(Cc4ccccc4)c3)C2)O1 (stereo partly drawn) [Example 22, (4R)-1′-(1-Benzyl-1H-pyrazole-4-carbonyl)-6-chloro-5′-cyclopropyl-5-fluorospiro[benzo[d][1,3]oxazine-4,3′-piperidin]-2(1H)-one] |
| 1370 | 9.7 | O=C1Nc2ccc(Cl)c(F)c2[C@@]2(CCCN(C(=O)c3nnc(C(CC(F)(F)F)c4ccccc4)[nH]3)C2)O1 (single isomer, unassigned) [Example 99] |
| 1130 | 3.6 | CCC(c1ccc(F)cc1)c1nnc(C(=O)N2CC(C)(C)C[C@@]3(C2)OC(=O)Nc2ccc(Cl)c(F)c23)[nH]1 (single isomer, unassigned) [Example 102] |
| 881 | 37.5 | O=C1Nc2ccc(Cl)c(F)c2[C@@]2(CCCN(C(=O)c3cnn(Cc4ccnc(C(F)(F)F)c4)c3)C2)O1 [Example 7, (R)-6-Chloro-5-fluoro-1′-(1-((2-(trifluoromethyl)pyridin-4-yl)methyl)-1H-pyrazole-4-carbonyl)spiro[benzo[d][1,3]oxazine-4,3′-piperidin]-2(1H)-one] |
| 795 | 1.6 | O=C1Nc2ccc(Cl)c(F)c2[C@@]2(CCCN(C(=O)c3nnc(C(c4ccccc4)C4CC4)[nH]3)C2)O1 (single isomer, unassigned) [Example 106] |
| 382 | 4 | CCC(O)(c1ccc(F)cc1)c1n[nH]c(C(=O)N2CCC[C@@]3(C2)OC(=O)Nc2ccc(Cl)c(F)c23)n1 (single isomer, unassigned) [Example 128, (R)-6-Chloro-5-fluoro-1′-(3-(UR or S)-1-(4-fluorophenyl)-1-hydroxypropyl)-1H-1,2,4-triazole-5-carbonyl)spiro[benzo[d][1,3]oxazine-4,3′-piperidin]-2(1H)-one] |
| 362 | 1.3 | O=C1Nc2ccc(Cl)c(F)c2[C@@]2(CCCN(C(=O)c3nnc(C(CC(F)(F)F)c4ccccc4)[nH]3)C2)O1 (single isomer, unassigned) [Example 98] |
